Measurements from patent US8461083B2, “Herbicidal compounds” (Syngenta Limited, priority 2008, dated 2013).

Columns and labels:
Format in all cases: in vivo
Solanum nigrum (SOLNI) [1] = assay: Post-emergence herbicidal glasshouse test; conditions: post-emergence (sprayed after 8 days cultivation), evaluated after 13 days, 100=total damage to plant, 0=no damage to plant; for pest or weed control at 1000 g/ha: Solanum nigrum, 312 h, read-out: POST Application SOLNI, damage to plant; for POST Application SOLNI, damage to plant: 1000 g/ha
Experimental: (§1) Seeds of a variety of test species were sown in standard soil in pots (Alopecurus myosuroides (ALOMY), Setaria faberi (SETFA), Echinochloa crus-galli (ECHCG), Solanum nigrum (SOLNI) and Amaranthus retoflexus (AMARE)). After cultivation for one day (pre-emergence) or after 8 days cultivation (post-emergence) under controlled conditions in a glasshouse (at 24/16° C., day/night; 14 hours light; 65% humidity), the plants were sprayed with an aqueous spray solution derived from the formulation of the technical active ingredient in acetone/water (50:50) solution containing 0.5% Tween 20 (polyoxyethelyene sorbitan monolaurate, CAS RN 9005-64-5). Compounds were applied at 1000 g/ha. The test plants were then grown in a glasshouse under controlled conditions in a glasshouse (at 24/16° C., day/night; 14 hours light; 65% humidity) and watered twice daily. After 13 days for pre and post-emergence, the test was evaluated (100=total damage to plant; 0=no damage to plant).

Setaria faberi (SETFA) [2] = assay: Post-emergence herbicidal glasshouse test; conditions: post-emergence (sprayed after 8 days cultivation), evaluated after 13 days, 100=total damage to plant, 0=no damage to plant; for pest or weed control at 1000 g/ha: Setaria faberi, 312 h, read-out: POST Application SETFA, damage to plant; for POST Application SETFA, damage to plant: 1000 g/ha
Experimental: as §1

[3] = tested on: Echinochloa crus-galli (ECHCG); assay: Post-emergence herbicidal glasshouse test; conditions: post-emergence (sprayed after 8 days cultivation), evaluated after 13 days, 100=total damage to plant, 0=no damage to plant; for pest or weed control at 1000 g/ha: Echinochloa crus-galli, 312 h, read-out: POST Application ECHCG, damage to plant; for POST Application ECHCG, damage to plant: 1000 g/ha
Experimental: as §1

[4] = tested on: Alopecurus myosuroides (ALOMY); assay: Post-emergence herbicidal glasshouse test; conditions: post-emergence (sprayed after 8 days cultivation), evaluated after 13 days, 100=total damage to plant, 0=no damage to plant; for pest or weed control at 1000 g/ha: Alopecurus myosuroides, 312 h, read-out: POST Application ALOMY, damage to plant; for POST Application ALOMY, damage to plant: 1000 g/ha
Experimental: as §1

[5] = tested on: Amaranthus retoflexus (AMARE); assay: Post-emergence herbicidal glasshouse test; conditions: post-emergence (sprayed after 8 days cultivation), evaluated after 13 days, 100=total damage to plant, 0=no damage to plant; for pest or weed control at 1000 g/ha: Amaranthus retroflexus, 312 h, read-out: POST Application AMARE, damage to plant; for POST Application AMARE, damage to plant: 1000 g/ha
Experimental: as §1

Solanum nigrum (SOLNI) [6] = assay: Pre-emergence herbicidal glasshouse test; conditions: pre-emergence (sprayed after one day cultivation), evaluated after 13 days, 100=total damage to plant, 0=no damage to plant; for pest or weed control at 1000 g/ha: Solanum nigrum, 312 h, read-out: PRE Application SOLNI, damage to plant; for PRE Application SOLNI, damage to plant: 1000 g/ha
Experimental: as §1

Setaria faberi (SETFA) [7] = assay: Pre-emergence herbicidal glasshouse test; conditions: pre-emergence (sprayed after one day cultivation), evaluated after 13 days, 100=total damage to plant, 0=no damage to plant; for pest or weed control at 1000 g/ha: Setaria faberi, 312 h, read-out: PRE Application SETFA, damage to plant; for PRE Application SETFA, damage to plant: 1000 g/ha
Experimental: as §1

[8] = tested on: Echinochloa crus-galli (ECHCG); assay: Pre-emergence herbicidal glasshouse test; conditions: pre-emergence (sprayed after one day cultivation), evaluated after 13 days, 100=total damage to plant, 0=no damage to plant; for pest or weed control at 1000 g/ha: Echinochloa crus-galli, 312 h, read-out: PRE Application ECHCG, damage to plant; for PRE Application ECHCG, damage to plant: 1000 g/ha
Experimental: as §1

[9] = tested on: Alopecurus myosuroides (ALOMY); assay: Pre-emergence herbicidal glasshouse test; conditions: pre-emergence (sprayed after one day cultivation), evaluated after 13 days, 100=total damage to plant, 0=no damage to plant; for pest or weed control at 1000 g/ha: Alopecurus myosuroides, 312 h, read-out: PRE Application ALOMY, damage to plant; for PRE Application ALOMY, damage to plant: 1000 g/ha
Experimental: as §1

[10] = tested on: Amaranthus retoflexus (AMARE); assay: Pre-emergence herbicidal glasshouse test; conditions: pre-emergence (sprayed after one day cultivation), evaluated after 13 days, 100=total damage to plant, 0=no damage to plant; for pest or weed control at 1000 g/ha: Amaranthus retroflexus, 312 h, read-out: PRE Application AMARE, damage to plant; for PRE Application AMARE, damage to plant: 1000 g/ha
Experimental: as §1

Structure (SMILES)	pest or weed control at 1000 g/ha (Solanum nigrum (SOLNI) [1])	pest or weed control at 1000 g/ha (Setaria faberi (SETFA) [2])	pest or weed control at 1000 g/ha [3]	pest or weed control at 1000 g/ha [4]	pest or weed control at 1000 g/ha [5]	pest or weed control at 1000 g/ha (Solanum nigrum (SOLNI) [6])	pest or weed control at 1000 g/ha (Setaria faberi (SETFA) [7])	pest or weed control at 1000 g/ha [8]	pest or weed control at 1000 g/ha [9]	pest or weed control at 1000 g/ha [10]	POST Application SOLNI, damage to plant (Solanum nigrum (SOLNI) [1])	POST Application SETFA, damage to plant (Setaria faberi (SETFA) [2])	POST Application ECHCG, damage to plant [3]	POST Application ALOMY, damage to plant [4]	POST Application AMARE, damage to plant [5]	PRE Application SOLNI, damage to plant (Solanum nigrum (SOLNI) [6])	PRE Application SETFA, damage to plant (Setaria faberi (SETFA) [7])	PRE Application ECHCG, damage to plant [8]	PRE Application ALOMY, damage to plant [9]	PRE Application AMARE, damage to plant [10]
O=C1CCCC(=O)C1C(=O)c1cc2ccc(Oc3ccccc3)nc2nc1C(F)(F)F [Compound 1.17, 2-(7-phenoxy-2-trifluoromethyl-[1,8]-naphthyridine-3-carbonyl)-cyclohexane-1,3-dione]	100%	100%	90%	90%	70%	100%	100%	100%	100%	100%										
COC(C)c1ccc2cc(C(=O)C3C(=O)CCCC3=O)c(C(F)(F)F)nc2n1 (stereo not drawn) [Compound 1.63, 2-[7-(1-methoxyethyl)-2-trifluoromethyl-[1,8]-naphthyridine-3-carbony]-cyclohexane-1,3-dione]											80	90	90	90	100	100	100	100	70	100
COCCN(C)c1nc2nc(C(F)(F)F)c(C(=O)C3C(=O)CCCC3=O)cc2cc1F [Compound 1.80, 2-[6-fluoro-7-(2-methoxyethylmethylamino)-2-trifluoromethyl-[1,8]-naphthyridine-3-carbony]-cyclohexane-1,3-dione]											80	80	90	80	80	100	100	100	80	100
Cc1nc2nc(C(F)(F)C(F)(F)F)c(C(=O)C3C(=O)CCCC3=O)cc2cc1F [Compound 1.94]											90	80	80	60	100	90	100	100	20	100
O=C1CCCC(=O)C1C(=O)c1cc2ccc(=O)n(CC3CC3)c2nc1C(F)(F)F [Compound 2.9, 2-{8-(cyclopropylmethyl)-7-oxo-7,8-dihydro-2-trifluoromethyl-[1,8]-naphthyridine-3-carbony}-cyclohexane-1,3-dione]											90	90	90	90	100	90	90	100	60	60
Cc1nc2nc(C(F)(F)F)c(C(=O)C3=C(OC(=O)C(C)C)CCCC3=O)cc2cc1F [Compound 4.21, Isobutyric acid 2-(6-fluoro-7-methyl-2-trifluoromethyl-[1,8]-naphthyridine-3-carbonyl)-3-oxo-cyclohex-1-enyl ester]	80%	80%	80%	80%	90%	100%	100%	100%	80%	100%										
CCNc1nc2nc(C(F)(F)F)c(C(=O)C3C(=O)CCCC3=O)cc2cc1F [Compound 1.84]	80%	80%	80%	70%	80%	100%	100%	100%	60%	100%										
O=C1CCCC(=O)C1C(=O)c1cc2ccc(C(F)F)nc2nc1C(F)(F)F [Compound 1.12]	100%	100%	100%	100%	60%	100%	100%	100%	90%	100%										
CCc1ccc2cc(C(=O)C3C(=O)CCCC3=O)c(C(F)(F)F)nc2n1 [Compound 1.3, 2-[7-ethyl-trifluoromethyl-[1,8]-naphthyridine-3-carbony]-cyclohexane-1,3-dione]											90	90	80	70	100	100	80	100	80	90
Cc1ccc2cc(C(=O)C3C(=O)CCCC3=O)c(C(F)(F)Cl)nc2n1 [Compound 1.89, 2-[2-chlorodifluoromethyl-7-methyl [1,8]-naphthyridine-3-carbony]-cyclohexane-1,3-dione]											90	80	90	70	100	100	100	100	40	100
O=C(Cn1c(=O)ccc2cc(C(=O)C3C(=O)CCCC3=O)c(C(F)(F)F)nc21)c1ccccc1 [Compound 2.6, 2-{8-(2-phenyl-2-oxo-ethyl)-7-oxo-7,8-dihydro-2-trifluoromethyl-[1,8]-naphthyridine-3-carbony}-cyclohexane-1,3-dione]											90	70	70	40	90	90	10	40	20	60
CCOCCn1c(=O)ccc2cc(C(=O)C3C(=O)CCCC3=O)c(C(F)(F)F)nc21 [Compound 2.16, 2-{8-(2-ethoxyethyl)-7-oxo-7,8-dihydro-2-trifluoromethyl-[1,8]-naphthyridine-3-carbony}-cyclohexane-1,3-dione]											90	90	90	90	70	90	90	90	60	90
